Source: patent publication US20100144755A1 (Glaxo Group Limited, priority 2006, published 2010)
pIC50: −log10 of the molar value. Structures can show the parent of a compound that is named as a salt.

Assays:
[1] = test system: influx of neutrophils to the lung in LPS-challenged rats; test: Rat LPS neutrophilia model; assay type: in vivo; settings: LPS aerosol, intratracheal dosing, in at least one of the range of conditions tested, significance p<0.05
In short: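 Compound given intratracheally (200 ul suspension or dry powder via microsprayer) to isoflurane-anesthetized rats 15 min–24 h before 15 min LPS aerosol (100 ug/ml). Lavage 4 h post-challenge; neutrophils from differential counts. % inhibition versus no-compound controls at a given concentration and pretreat time.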

[2] = test system: TNF-stimulated IL8 production by human neutrophils; test: TNF-stimulated IL-8 production from human neutrophils; assay type: cell-based; settings: Neutrophil, TNF 100 ng/ml, about 20 hrs, bounds reflect the top concentration screened, for 202(c) and 120 a range over multiple runs with ends given as 'greater than';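 further: IL-8 in cell-free supernatant quantified by sandwich ELISA, inhibition calculated against a compound-free control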
Experimental: TNF-Stimulated IL-8 Production from Human Neutrophils
The effect of test compounds on TNF-stimulated IL8 production by human neutrophils is measured as follows. Neutrophils are prepared from blood obtained from consenting donors, using standard methods. Blood is collected in heparinized syringes and layered over histopaque (30 ml/20 ml). Following centrifugation, the red cell pellet is resuspended in PBS and purified over a dextran gradient. […] Cells are added (0.5-1 ml) to 48 well plates already containing compound at 1000× final concentration in neat DMSO or 10% DMSO in RPMI1640 with 10% FBS. TNF (final concentration 100 ng/ml) is used as the stimulus. Cells incubated for approximately 20 hrs at 37° C., 5% CO2. Levels of IL-8 in the cell free supernatant are determined by sandwich ELISA, and inhibition relative to a control with DMPO but no compound is calculated.

Structure (SMILES) | melting point | inhibition of neutrophilia [1] | pIC50 [2]
CCCNC(=O)c1ccc(C)c(-c2nc(NCCN(C)C(=O)OC(C)(C)C)nc3c2ccc(=O)n3-c2c(F)cccc2F)c1 [Example 106, 1,1-dimethylethyl{2-[(8-(2,6-difluorophenyl)-4-{2-methyl-5-[(propylamino)carbonyl]phenyl}-7-oxo-7,8-dihydropyrido[2,3-d]pyrimidin-2-yl)amino]ethyl}methylcarbamate] | 115 to 118 °C |  | 
CCCNC(=O)c1ccc(C)c(-c2nc(N(C)CCCN(C)C)nc3c2ccc(=O)n3-c2c(F)cccc2F)c1 [Example 104, 3-{8-(2,6-difluorophenyl)-2-[[3-(dimethylamino)propyl](methyl)amino]-7-oxo-7,8-dihydropyrido[2,3-d]pyrimidin-4-yl}-4-methyl-N-propylbenzamide] | 104 to 109 °C | statistically significant inhibition | 
Cc1ccc(NC(=O)c2ccsc2)cc1-c1nc(N2CCC(N)CC2)nc2c1ccc(=O)n2-c1c(F)cccc1F [Example 32, N-{3-[2-(4-amino-1-piperidinyl)-8-(2,6-difluorophenyl)-7-oxo-7,8-dihydropyrido[2,3-d]pyrimidin-4-yl]-4-methylphenyl}-3-thiophenecarboxamide] | 183.8 to 187.9 °C | statistically nonsignificant inhibition | 
Cc1ccc(C(=O)NCc2ccccc2)cc1-c1nc(NCc2ncc[nH]2)nc2c1ccc(=O)n2-c1c(F)cccc1F [116(c), 3-{8-(2,6-difluorophenyl)-2-[(1H-imidazol-2-ylmethyl)amino]-7-oxo-7,8-dihydropyrido[2,3-d]pyrimidin-4-yl}-4-methyl-N-(phenylmethyl)benzamide] | 185 to 190 °C (dec.) |  | 
Cc1ccc(C(=O)NC2CC2)cc1-c1nc(NC2CC(C)(C)NC(C)(C)C2)nc2c1ccc(=O)n2-c1c(F)cccc1F [21(c)] | 326.3 to 327.9 °C |  | 
CCN(CC)CCCNc1nc(-c2cc(C(=O)N[C@H](C)C(C)C)ccc2C)c2ccc(=O)n(-c3c(F)cccc3F)c2n1 [Example 130, 3-[2-{[3-(diethylamino)propyl]amino}-8-(2,6-difluorophenyl)-7-oxo-7,8-dihydropyrido[2,3-d]pyrimidin-4-yl]-N-[(1R)-1,2-dimethylpropyl]-4-methylbenzamide] |  | statistically nonsignificant inhibition | < 8.00
CCCNC(=O)c1ccc(C)c(-c2nc(NCCN(C)C)nc3c2ccc(=O)n3-c2c(F)cccc2F)c1 [Example 105, 3-(8-(2,6-difluorophenyl)-2-{[2-(dimethylamino)ethyl]amino}-7-oxo-7,8-dihydropyrido[2,3-d]pyrimidin-4-yl)-4-methyl-N-propylbenzamide] | 139 to 142 °C | statistically significant inhibition | 
Cc1ccc(N)cc1-c1nc(NC2CC(C)(C)NC(C)(C)C2)nc2c1ccc(=O)n2-c1c(F)cccc1F [Example 110, 4-(5-amino-2-methylphenyl)-8-(2,6-difluorophenyl)-2-[(2,2,6,6-tetramethyl-4-piperidinyl)amino]pyrido[2,3-d]pyrimidin-7(8H)-one] |  |  | < 7.00
Cc1ccc(NC(=O)c2ccc(Cl)nc2)cc1-c1nc(NC2CCNCC2)nc2c1ccc(=O)n2-c1c(F)cccc1F [14(c), 6-chloro-N-{3-[8-(2,6-difluorophenyl)-7-oxo-2-(4-piperidinylamino)-7,8-dihydropyrido[2,3-d]pyrimidin-4-yl]-4-methylphenyl}-3-pyridinecarboxamide] |  |  | < 7.00
Cc1ccc(NC(=O)CCNC(=O)CCC(=O)O)cc1-c1nc(NC(CO)CO)nc2c1ccc(=O)n2-c1c(F)cccc1F [Example 52, 4-[(3-{[3-(8-(2,6-difluorophenyl)-2-{[2-hydroxy-1-(hydroxymethyl)ethyl]amino}-7-oxo-7,8-dihydropyrido[2,3-d]pyrimidin-4-yl)-4-methylphenyl]amino}-3-oxopropyl)amino]-4-oxobutanoic acid trifluoroacetate] |  |  | < 7.00
CCN(CC)CCCNc1nc(-c2ccc(C(=O)NC(C)C)cc2)c2ccc(=O)n(-c3c(F)cccc3F)c2n1 [Example 189, 4-[2-{[3-(diethylamino)propyl]amino}-8-(2,6-difluorophenyl)-7-oxo-7,8-dihydropyrido[2,3-d]pyrimidin-4-yl]-N-(1-methylethyl)benzamide] |  |  | < 7.00
CCN(CC)CCCNc1nc(-c2ccc(C(=O)Nc3ccc(F)cc3)cc2)c2ccc(=O)n(-c3c(F)cccc3F)c2n1 [Example 191, 4-[2-{[3-(diethylamino)propyl]amino}-8-(2,6-difluorophenyl)-7-oxo-7,8-dihydropyrido[2,3-d]pyrimidin-4-yl]-N-(4-fluorophenyl)benzamide] |  |  | < 7.00
Cc1ccc(NC(=O)c2ccc(Cl)nc2)cc1-c1nc(NCc2ncc[nH]2)nc2c1ccc(=O)n2-c1c(F)cccc1F [Example 17, 6-chloro-N-(3-{8-(2,6-difluorophenyl)-2-[(1H-imidazol-2-ylmethyl)amino]-7-oxo-7,8-dihydropyrido[2,3-d]pyrimidin-4-yl}-4-methylphenyl)-3-pyridinecarboxamide] |  |  | < 7.00
Cc1c(F)cc(C(=O)NC2CC2)cc1-c1nc(NC(CO)CO)nc2c1ccc(=O)n2-c1c(F)cccc1F [18(e), N-cyclopropyl-3-(8-(2,6-difluorophenyl)-2-{[2-hydroxy-1-(hydroxymethyl)ethyl]amino}-7-oxo-7,8-dihydropyrido[2,3-d]pyrimidin-4-yl)-5-fluoro-4-methylbenzamide] | 214.2 to 217.5 °C |  | 
Cc1ccc(N)cc1-c1nc(NC2CCNCC2)nc2c1ccc(=O)n2-c1c(F)cccc1F [Example 111, 4-(5-amino-methylphenyl)-8-(2,6-difluorophenyl)-2-(4-piperidinylamino)-pyrido[2,3-d]pyrimidin-7(8H)-one] |  |  | < 7.00
Cc1ccc(NC(=O)c2cn(C)cn2)cc1-c1nc(NC(CO)CO)nc2c1ccc(=O)n2-c1c(F)cccc1F [Example 51, N-[3-(2,6-difluorophenyl)-2-{[2-hydroxy-1-(hydroxymethyl)ethyl]amino}-7-oxo-7,8-dihydropyrido[2,3-d]pyrimidin-4-yl)-4-methylphenyl]-1-methyl-1H-imidazole-4-carboxamide trifluoroacetate] |  |  | < 7.00
Cc1cc(C(=O)Nc2ccc(C)c(-c3nc(NC4CCNCC4)nc4c3ccc(=O)n4-c3c(F)cccc3F)c2)ccc1F [12(c), N-{3-[8-(2,6-difluorophenyl)-7-oxo-2-(4-piperidinylamino)-7,8-dihydropyrido[2,3-d]pyrimidin-4-yl]-4-methylphenyl}-4-fluoro-3-methylbenzamide] |  |  | < 7.00
CCCNC(=O)c1ccc(-c2nc(NCCCN(CC)CC)nc3c2ccc(=O)n3-c2c(F)cccc2F)cc1 [188(b), 4-[2-{[3-(diethylamino)propyl]amino}-8-(2,6-difluorophenyl)-7-oxo-7,8-dihydropyrido[2,3-d]pyrimidin-4-yl]-N-propylbenzamide] |  |  | < 7.00
Cc1ccc(C(=O)NC2CC2)cc1-c1nc(NCCN(C)C)nc2c1ccc(=O)n2-c1c(F)cccc1F [Example 25] | 214.7 to 217.5 °C | statistically nonsignificant inhibition | 
Cc1ccc(C(=O)NCCc2ccccc2)cc1-c1nc(NCCN(C)C(=O)OC(C)(C)C)nc2c1ccc(=O)n2-c1c(F)cccc1F [202(c), 1,1-dimethylethyl(2-{[8-(2,6-difluorophenyl)-4-(2-methyl-5-{[(2-phenylethyl)amino]carbonyl}phenyl)-7-oxo-7,8-dihydropyrido[2,3-d]pyrimidin-2-yl]amino}ethyl)methylcarbamate] |  |  | 7.00 to 8.00
CCCNCCNc1nc(-c2cc(C(=O)NC3CC3)ccc2C)c2ccc(=O)n(-c3c(F)cccc3F)c2n1 [Example 24, N-cyclopropyl-3-(8-(2,6-difluorophenyl)-7-oxo-2-{[2-(propylamino)ethyl]amino}-7,8-dihydropyrido[2,3-d]pyrimidin-4-yl)-4-methylbenzamide] | 120 to 134 °C | statistically nonsignificant inhibition | 
CNCCNc1nc(-c2cc(NC(=O)c3cccs3)ccc2C)c2ccc(=O)n(-c3c(F)cccc3F)c2n1 [Example 11, N-[3-(8-(2,6-difluorophenyl)-2-{[2-(methylamino)ethyl]amino}-7-oxo-7,8-dihydropyrido[2,3-d]pyrimidin-4-yl)-4-methylphenyl]-2-thiophenecarboxamide] |  |  | < 7.00
Cc1ccc(NC(=O)c2cccs2)cc1-c1nc(S(C)(=O)=O)nc2c1ccc(=O)n2-c1c(F)cccc1F [7(c), N-{3-[8-(2,6-difluorophenyl)-2-(methylsulfonyl)-7-oxo-7,8-dihydropyrido[2,3-d]pyrimidin-4-yl]-4-methylphenyl}-2-thiophenecarboxamide] |  |  | < 7.00
Cc1ccc(C(=O)NCC(C)(C)C)cc1-c1nc(N2CCC(N3CCC(C)CC3)CC2)nc2c1ccc(=O)n2-c1c(F)cccc1F [Example 171, 3-[8-(2,6-difluorophenyl)-2-(4-methyl-1,4′-bipiperidin-1′-yl)-7-oxo-7,8-dihydropyrido[2,3-d]pyrimidin-4-yl]-N-(2,2-dimethylpropyl)-4-methylbenzamide] |  |  | < 7.00
CCN(CC)CCCNc1nc(-c2cccc(C(=O)O)c2)c2ccc(=O)n(-c3c(F)cccc3F)c2n1 [193(a), 3-[2-{[3-(diethylamino)propyl]amino}-8-(2,6-difluorophenyl)-7-oxo-7,8-dihydropyrido[2,3-d]pyrimidin-4-yl]benzoic acid] |  |  | < 7.00
